Data reported in article PMC5855550, “Pharmacokinetic Study of Bioactive Flavonoids in the Traditional Japanese Medicine Keigairengyoto Exerting Antibacterial Effects against Staphylococcus aureus” (International Journal of Molecular Sciences, 2018).

Legend:
in vivo = assay: in vivo
Method: To specifically deconjugate glucuronides, 80 μL of plasma sample was incubated with 50 μL of β-glucuronidase solution containing 200 units/mL β-glucuronidase from Escherichia coli (Sigma-Aldrich) for 2 h at 37 °C. The deconjugation reaction was stopped by adding ethyl acetate or by refrigerating the mixture considering the following procedures. This pretreated solution was injected into the two liquid chromatography–mass spectrometry with tandem mass spectrometry (LC-MS/MS) systems after pooling with an internal standard solution of niflumic acid (Sigma-Aldrich) or atropine (Wako Pure Chemical Industries, Osaka, Japan).
For quantification of apigenin, wogonin, wogonoside, hesperetin, naringenin, liquiritigenin, genistein, and luteolin in β-glucuronidase-naive (untreated) plasma, 200 µL plasma samples were pretreated by liquid-liquid extraction using ethyl acetate. The total supernatant was collected, dried, and concentrated using a centrifugal evaporator. The dried residue was then dissolved in 60 μL of the specific HPLC mobile phase used for each analytical method, and a 10 or 20 μL volume injected into the LC-MS/MS system.
For quantification of baicalin, baicalein, and berberine in untreated plasma, 80 µL of plasma was pretreated by solid-phase extraction using Oasis HLB 96-well µElution plate (Waters, Milford, MA, USA). The methanol eluates were collected, dried, and dissolved in 60 μL of the specific HPLC mobile phase. A 10 or 20 μL volume was then injected into the LC-MS/MS system.
For quantification of glycyrrhizic acid and glycyrrhetinic acid in untreated plasma, 100 µL plasma samples were pretreated by deproteinization using methanol. The supernatant was collected, dried, and concentrated using a centrifugal evaporator. The dried residue was then dissolved in 60 μL of the specific HPLC mobile phase used for the analytical method, and a 10 μL volume injected into the LC-MS/MS system.
For quantification of wogonin, wogonoside, hesperetin, naringenin, liquiritigenin, and genistein in treated plasma, the reaction solutions after deconjugation reactions were pretreated by liquid-liquid extraction. The supernatant was dissolved in 120 μL of the specific HPLC mobile phase, and a 10 or 15 μL volume injected into the LC-MS/MS system.
For quantification of apigenin, luteolin, baicalin, baicalein, and berberine in treated plasma, the reaction solutions after deconjugation were pretreated by solid-phase extraction by the method described above, and 10 or 15 μL of the solution dissolved in 50 μL of the specific HPLC mobile phase was injected into the LC-MS/MS system.
Pharmacokinetic parameters of flavonoids and glucuronide metabolites in KRT-administrated plasma with or without β-glucuronidase treatment were analyzed by noncompartmental modeling using Phoenix WinNonlin (version 6.3, Certara L.P., St. Louis, MO, USA) to determine various pharmacokinetic constants, including Cmax, tmax, t1/2, and AUC0–last. The t1/2 was […] loge2/ke, where ke is the terminal elimination rate constant determined from at least three data points on the descending linear limb.

RAW264.7 cells = assay: Macrophage culture assay: phagocytosis of FITC-conjugated S. aureus; assay type: cell-based, mouse; details: for Phagocytosis relative change versus control / Phagocytosis MFI: IFN-γ 0.5 ng/mL; for Phagocytosis MFI: mean ± SEM of triplicates
Method: Cells of the mouse macrophage cell line RAW264.7 (ATCC, Manassas, VA, USA) were grown in Dulbecco’s modified Eagles medium supplemented with 10% fetal bovine serum (FBS), 4.5 g/L glucose, 2 mmol/L L-glutamine, 100 U/mL penicillin, 100 µg/mL streptomycin, and 10 mmol/L HEPES. […] After 3 days’ incubation at 37 °C, culture fluids were removed and replaced by warm medium containing 30 μg/mL FITC-conjugated S. aureus. After 30 min incubation in a 5% CO2 incubator, cells were harvested using cold PBS containing 2 mmol/L EDTA, washed, and fixed for 15 min at 4 °C with phosphate buffer containing 4% paraformaldehyde (pH 7.4). FITC-positive cells were determined using a FACSaria II flow cytometer and DIVA 8.0.1 software (Becton Dickinson, San Jose, CA, USA). Phagocytic activity is expressed as the mean fluorescence intensity (MFI) from individual cells.

β-glucuronidase = target: T1, β-glucuronidase (Mus musculus, UniProt P12265); assay: Conversion assay of baicalin to baicalein by macrophages, macrophage lysate and skin homogenate; assay type: in vitro ADME; details: baicalin 10 μmol/L; 24 h incubation; living macrophages (RAW264.7), also lysates of macrophages and skin
T1 construct: endogenous in cells; host or cells: RAW264.7 cells (live or lysate); alternatively back-skin homogenate supernatant of naive mice (tissue)
T1 sequence (P12265 23-648): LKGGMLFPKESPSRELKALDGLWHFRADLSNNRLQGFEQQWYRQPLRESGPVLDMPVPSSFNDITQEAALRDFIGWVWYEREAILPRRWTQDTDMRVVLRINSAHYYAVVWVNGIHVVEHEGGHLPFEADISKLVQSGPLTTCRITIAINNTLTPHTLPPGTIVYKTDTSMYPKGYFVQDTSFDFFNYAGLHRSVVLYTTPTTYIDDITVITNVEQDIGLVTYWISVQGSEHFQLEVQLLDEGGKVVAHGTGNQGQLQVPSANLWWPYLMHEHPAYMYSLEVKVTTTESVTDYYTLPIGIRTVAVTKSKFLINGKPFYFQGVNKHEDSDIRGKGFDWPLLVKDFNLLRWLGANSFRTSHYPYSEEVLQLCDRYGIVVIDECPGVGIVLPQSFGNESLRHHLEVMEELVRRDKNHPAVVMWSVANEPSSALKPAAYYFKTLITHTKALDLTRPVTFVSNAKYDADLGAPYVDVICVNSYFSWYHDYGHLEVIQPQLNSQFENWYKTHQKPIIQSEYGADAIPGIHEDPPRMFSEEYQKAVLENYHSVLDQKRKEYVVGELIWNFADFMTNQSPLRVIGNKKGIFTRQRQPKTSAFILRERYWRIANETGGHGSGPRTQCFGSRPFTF
Method: Naïve mice were sacrificed by exsanguination to obtain skin samples from the back. After shaving with an electric razor, the skin was excised and homogenized in cold PBS at 20 mg/mL. After centrifugation at 10,000× g for 20 min at 4 °C, supernatants were harvested and stored at −80 °C until use.
To examine β-glucuronidase activity in skin tissue, baicalin (final 10 μmol/L) was added as a substrate to skin homogenate in 24-well plates. Alternatively, to examine β-glucuronidase activity in macrophages, baicalin (final 10 μmol/L) was added to live RAW264.7 cells seeded at 1 × 10^5 cells/0.5 mL/well or to cell lysates in 24-well plates. After 24 h incubation in a 5% CO2 incubator, supernatants were harvested and stored at −80 °C until measurement of baicalin and baicalein by LC-MS/MS as described above.

macrophage = tested on: macrophage; set-up: method as in doi:10.24294/ti.v1.i1.31; details: previous data; cited from earlier work
[1] = Sprague-Dawley, rat, in vivo, po
[2] = Sprague-Dawley, rat, in vivo, po, 2 g/kg
[3] = Exp. 1, 10 μmol/L, 3 days, control 155 ± 4
[4] = Exp. 2, 1 μmol/L, control 226 ± 12
[5] = Exp. 2, 3 μmol/L, control 226 ± 12
[6] = Exp. 2, 10 μmol/L, control 226 ± 12
[7] = Sprague-Dawley, rat, plasma, po, 2 g/kg

Structure (SMILES)	AUC(0-t) (in vivo; [2]) [ng·h/mL]	Cmax (in vivo; [2]) [ng/mL]	Tmax (in vivo; [2]) [h]	phagocytosis by macrophages (result in words) (RAW264.7 cells; 10 μmol/L)	Phagocytosis relative change versus control (RAW264.7 cells; Exp. 1, 10 μmol/L)	Phagocytosis MFI (RAW264.7 cells; [3])	Tmax (in vivo; [7]) [h]	further results
O=c1cc(-c2ccc(O)cc2)oc2cc(O)cc(O)c12 [Apigenin, apigenin]	0.843	0.14	4	enhanced	3.3	507 ± 11	–	Tmax (in vivo; [1]): 10.0 h
O=c1cc(-c2ccccc2)oc2cc(O)c(O)c(O)c12 [Baicalein, baicalein]	–	–	–	enhanced	3.4	530 ± 6	–	Cmax (in vivo; Sprague-Dawley, rat, plasma, oral, 2 g/kg): 1320 ng/mL; Cmax (in vivo; rat plasma, no β-glucuronidase treatment, KRT 2 g/kg oral, BQL for baicalein = 125 ng/mL): BQL ^#; Cmax (in vivo; rat plasma, no β-glucuronidase treatment, KRT 2 g/kg oral, BQL for baicalein = 125 ng/mL, listed as baicalein): BQL; Phagocytosis relative change versus control (RAW264.7 cells; Exp. 2, 1 μmol/L): 1.0; Phagocytosis MFI (RAW264.7 cells; [4]): 223 ± 10; Phagocytosis relative change versus control (RAW264.7 cells; Exp. 2, 3 μmol/L): 2.0; Phagocytosis MFI (RAW264.7 cells; [5]): 445 ± 7; Phagocytosis relative change versus control (RAW264.7 cells; Exp. 2, 10 μmol/L): 3.8; Phagocytosis MFI (RAW264.7 cells; [6]): 866 ± 25
O=c1c(-c2ccc(O)cc2)coc2cc(O)cc(O)c12 [Genistein, genistein]	9.65	0.998	24	enhanced	3.4	525 ± 22	–	plasma concentration (in vivo; β-glucuronidase-treated plasma until 6 h after KRT administration, detected at 10 and 24 h): below the detection limit
CC1(C)[C@@H](O[C@H]2O[C@H](C(=O)O)[C@@H](O)[C@H](O)[C@H]2O[C@@H]2O[C@H](C(=O)O)[C@@H](O)[C@H](O)[C@H]2O)CC[C@]2(C)[C@H]3C(=O)C=C4[C@@H]5C[C@@](C)(C(=O)O)CC[C@]5(C)CC[C@@]4(C)[C@]3(C)CC[C@@H]12 [Glycyrrhizic acid, glycyrrhizic acid]	–	–	–	–	–	–	1	Cmax (in vivo; [7]): 2.88 ng/mL
COc1ccc([C@@H]2CC(=O)c3c(O)cc(O)cc3O2)cc1O [Hesperetin, hesperetin]	–	–	–	did not	1.2	193 ± 12	4	AUC(0-t) (in vivo; [7]): 2.83 ng·h/mL; Cmax (in vivo; [7]): 0.644 ng/mL
O=C1C[C@@H](c2ccc(O)cc2)Oc2cc(O)ccc21 [Liquiritigenin, liquiritigenin]	–	–	–	enhanced	1.6	245 ± 4	4	AUC(0-t) (in vivo; [7]): 8.68 ng·h/mL; Cmax (in vivo; [7]): 2.11 ng/mL
O=c1cc(-c2ccc(O)c(O)c2)oc2cc(O)cc(O)c12 [Luteolin, luteolin]	21.3	4.7	6	enhanced	2.6	408 ± 22	–	Tmax (in vivo; [1]): 1.00 h; t1/2 (in vivo; [1]): 11.7 h
O=C1C[C@@H](c2ccc(O)cc2)Oc2cc(O)cc(O)c21 [Naringenin, naringenin]	9.53	1.34	4	enhanced	1.5	236 ± 10	–	half-life (in vivo; [2]): 3.01 h
COc1c(O)cc(O)c2c(=O)cc(-c3ccccc3)oc12 [Wogonin, wogonin]	71.5	16.3	4	enhanced	1.7	271 ± 16	–	–
O=C(O)[C@H]1O[C@@H](Oc2cc3oc(-c4ccccc4)cc(=O)c3c(O)c2O)[C@H](O)[C@@H](O)[C@@H]1O [baicalin, baicalein 7-O-glucuronide]	10100	1020	4	promoted	–	–	–	half-life (in vivo; [2]): 3.53 h; Phagocytosis relative change versus control (RAW264.7 cells; Exp. 2, 1 μmol/L): 1.1; Phagocytosis MFI (RAW264.7 cells; [4]): 238 ± 9; Phagocytosis relative change versus control (RAW264.7 cells; Exp. 2, 3 μmol/L): 1.2; Phagocytosis MFI (RAW264.7 cells; [5]): 269 ± 10; Phagocytosis relative change versus control (RAW264.7 cells; Exp. 2, 10 μmol/L): 2.4; Phagocytosis MFI (RAW264.7 cells; [6]): 531 ± 19; deconjugation of baicalin to aglycone baicalein (β-glucuronidase): almost completely deconjugated to baicalein
CC1(C)[C@@H](O)CC[C@]2(C)[C@H]3C(=O)C=C4[C@@H]5C[C@@](C)(C(=O)O)CC[C@]5(C)CC[C@@]4(C)[C@]3(C)CC[C@@H]12 [glycyrrhetinic acid]	–	121	6	–	–	–	–	macrophage phagocytosis-enhancing activity (macrophage): no macrophage phagocytosis-enhancing activity
COc1c(O[C@@H]2O[C@H](C(=O)O)[C@@H](O)[C@H](O)[C@H]2O)cc(O)c2c(=O)cc(-c3ccccc3)oc12 [wogonoside, wogonin 7-O-glucuronide]	–	–	–	–	–	–	6	AUC(0-t) (in vivo; [7]): 3400 ng·h/mL
